Patent publication US20260365670A1, “EGFR INHIBITORS AND USES THEREOF” (DIZAL (JIANGSU) PHARMACEUTICAL CO., LTD., priority 2022, published 2026)
pIC50: −log10 of the molar value. Where two headings read alike, the source gives them in different places.

Tests used:
EGFR wild type = target: T1, EGFR wild type (Homo sapiens, UniProt P00533); experiment: Inhibition of EGFR wild type biochemical enzymatic activity (HTRF); settings: 1 mM ATP; for pIC50: EGFR wild type, 1 h at room temperature, read-out: IC50 @WT; for IC50: EGFR WT, 1 h, room temperature, read-out: IC50 (nM) @WT
T1 construct: purchased Carna Bio
Procedure, shortened: (§1)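 Recombinant kinases phosphorylated 1 μM biotinylated TK substrate with 1 mM ATP in buffer with 5 mM MgCl2, 1 mM MnCl2, 0.01% CHAPS, 1 mM DTT, 0.5% DMSO. Reaction ran 1 h at room temperature, stopped with EDTA-containing detection mix. HTRF 665/615 nm ratio gave IC50 via four-parameter logistic fit.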

EGFR L858R = target: T2, EGFR L858R (Homo sapiens, UniProt P00533, L858R); experiment: Inhibition of EGFR L858R biochemical enzymatic activity (HTRF); settings: 1 mM ATP; for pIC50: 1 h at room temperature, read-out: IC50 @L858R; for IC50: 1 h, room temperature, read-out: IC50 (nM) @L858R
T2 construct: purchased Carna Bio
T2 sequence (P00533 25-1210 L858R): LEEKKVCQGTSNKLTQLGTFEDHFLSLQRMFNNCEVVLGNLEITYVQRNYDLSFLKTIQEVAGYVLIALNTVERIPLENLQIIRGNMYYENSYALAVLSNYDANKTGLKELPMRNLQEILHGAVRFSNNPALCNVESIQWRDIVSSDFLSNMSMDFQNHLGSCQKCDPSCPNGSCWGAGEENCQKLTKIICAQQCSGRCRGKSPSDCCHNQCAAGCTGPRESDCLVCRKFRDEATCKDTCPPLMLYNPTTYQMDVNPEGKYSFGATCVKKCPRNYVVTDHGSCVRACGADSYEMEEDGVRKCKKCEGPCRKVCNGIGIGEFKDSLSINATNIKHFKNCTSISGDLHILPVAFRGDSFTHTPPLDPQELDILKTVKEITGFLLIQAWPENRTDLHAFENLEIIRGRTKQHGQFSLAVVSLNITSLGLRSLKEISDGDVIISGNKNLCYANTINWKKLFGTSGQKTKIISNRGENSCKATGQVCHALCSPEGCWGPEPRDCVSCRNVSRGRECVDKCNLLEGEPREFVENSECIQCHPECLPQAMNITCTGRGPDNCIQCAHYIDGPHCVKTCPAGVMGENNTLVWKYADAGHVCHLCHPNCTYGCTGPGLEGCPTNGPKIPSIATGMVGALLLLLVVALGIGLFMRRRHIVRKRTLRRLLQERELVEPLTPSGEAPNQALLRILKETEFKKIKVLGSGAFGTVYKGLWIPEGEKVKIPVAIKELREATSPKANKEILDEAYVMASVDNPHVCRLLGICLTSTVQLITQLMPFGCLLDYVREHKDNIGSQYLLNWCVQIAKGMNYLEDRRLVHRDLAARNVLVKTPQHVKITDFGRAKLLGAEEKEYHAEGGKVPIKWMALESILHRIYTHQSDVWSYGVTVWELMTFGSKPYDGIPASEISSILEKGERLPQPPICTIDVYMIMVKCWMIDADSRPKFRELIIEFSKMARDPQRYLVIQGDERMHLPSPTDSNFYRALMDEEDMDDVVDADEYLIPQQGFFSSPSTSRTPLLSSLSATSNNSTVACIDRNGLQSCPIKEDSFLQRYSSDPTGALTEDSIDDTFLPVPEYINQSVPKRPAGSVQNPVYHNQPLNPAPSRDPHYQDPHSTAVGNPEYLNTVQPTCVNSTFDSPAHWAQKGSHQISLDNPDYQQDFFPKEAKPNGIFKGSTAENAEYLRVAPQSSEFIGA
Procedure, shortened: as §1

EGFR L858R/T790M = target: T3, EGFR L858R/T790M (Homo sapiens, UniProt P00533, L858R/T790M); experiment: Inhibition of EGFR L858R/T790M biochemical enzymatic activity (HTRF); settings: 1 mM ATP; for pIC50: EGFR L858R/T790M, 1 h at room temperature, read-out: IC50 @L858R-T790M; for IC50: EGFR L858R-T790M, 1 h, room temperature, read-out: IC50 (nM) @L858R-T790M
T3 construct: purchased Carna Bio
T3 sequence (P00533 25-1210 T790M/L858R): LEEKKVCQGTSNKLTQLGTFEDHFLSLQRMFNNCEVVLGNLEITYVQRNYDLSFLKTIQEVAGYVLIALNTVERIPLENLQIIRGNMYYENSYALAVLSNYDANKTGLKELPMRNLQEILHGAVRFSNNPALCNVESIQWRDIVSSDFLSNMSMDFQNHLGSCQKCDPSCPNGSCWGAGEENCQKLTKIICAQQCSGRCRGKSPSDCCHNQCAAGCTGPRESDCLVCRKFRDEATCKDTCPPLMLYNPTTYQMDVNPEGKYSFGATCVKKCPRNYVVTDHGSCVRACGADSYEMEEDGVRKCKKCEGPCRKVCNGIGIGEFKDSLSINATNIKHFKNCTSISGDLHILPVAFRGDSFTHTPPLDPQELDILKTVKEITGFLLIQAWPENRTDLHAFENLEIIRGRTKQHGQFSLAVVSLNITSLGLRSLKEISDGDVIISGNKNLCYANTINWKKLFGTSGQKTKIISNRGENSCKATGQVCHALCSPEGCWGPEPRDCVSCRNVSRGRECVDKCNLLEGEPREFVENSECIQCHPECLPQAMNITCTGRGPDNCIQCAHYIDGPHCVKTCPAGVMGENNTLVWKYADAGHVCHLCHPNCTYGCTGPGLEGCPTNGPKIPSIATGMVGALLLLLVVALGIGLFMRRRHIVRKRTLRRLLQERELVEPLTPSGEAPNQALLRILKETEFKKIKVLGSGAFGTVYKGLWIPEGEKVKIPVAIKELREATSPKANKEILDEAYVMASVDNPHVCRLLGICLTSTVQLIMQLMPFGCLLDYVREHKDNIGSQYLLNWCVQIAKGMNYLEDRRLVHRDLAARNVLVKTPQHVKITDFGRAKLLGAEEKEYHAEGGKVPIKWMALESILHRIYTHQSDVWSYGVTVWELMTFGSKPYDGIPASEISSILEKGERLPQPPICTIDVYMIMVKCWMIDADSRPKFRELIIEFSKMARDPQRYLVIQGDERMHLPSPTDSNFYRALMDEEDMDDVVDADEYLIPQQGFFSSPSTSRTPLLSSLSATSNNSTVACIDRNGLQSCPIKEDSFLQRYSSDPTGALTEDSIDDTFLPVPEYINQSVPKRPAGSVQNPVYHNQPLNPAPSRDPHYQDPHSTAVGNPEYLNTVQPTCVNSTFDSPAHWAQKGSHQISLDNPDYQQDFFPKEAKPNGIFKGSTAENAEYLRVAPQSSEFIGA
Procedure, shortened: as §1

EGFR Exon19Del = target: T4, EGFR Exon19Del (Homo sapiens, UniProt P00533, DEL746-750); experiment: Inhibition of EGFR Exon19Del biochemical enzymatic activity (HTRF); settings: read-out: IC50 @Del19
T4 construct: purchased Carna Bio
Procedure, shortened: as §1

EGFR Exon19Del/T790M = target: T5, EGFR Exon19Del/T790M (Homo sapiens, UniProt P00533, DEL746-750/T790M); experiment: Inhibition of EGFR Exon19Del/T790M biochemical enzymatic activity (HTRF); settings: 1 mM ATP; for pIC50: EGFR Exon19Del/T790M, 1 h at room temperature, read-out: IC50 @Del19-T790M; for IC50: EGFR Del19-T790M, 1 h, room temperature, read-out: IC50 (nM) @Del19-T790M
T5 construct: purchased Carna Bio
T5 sequence (P00533 with tags, fused parts or gaps DEL746-750/T790M limits assumed): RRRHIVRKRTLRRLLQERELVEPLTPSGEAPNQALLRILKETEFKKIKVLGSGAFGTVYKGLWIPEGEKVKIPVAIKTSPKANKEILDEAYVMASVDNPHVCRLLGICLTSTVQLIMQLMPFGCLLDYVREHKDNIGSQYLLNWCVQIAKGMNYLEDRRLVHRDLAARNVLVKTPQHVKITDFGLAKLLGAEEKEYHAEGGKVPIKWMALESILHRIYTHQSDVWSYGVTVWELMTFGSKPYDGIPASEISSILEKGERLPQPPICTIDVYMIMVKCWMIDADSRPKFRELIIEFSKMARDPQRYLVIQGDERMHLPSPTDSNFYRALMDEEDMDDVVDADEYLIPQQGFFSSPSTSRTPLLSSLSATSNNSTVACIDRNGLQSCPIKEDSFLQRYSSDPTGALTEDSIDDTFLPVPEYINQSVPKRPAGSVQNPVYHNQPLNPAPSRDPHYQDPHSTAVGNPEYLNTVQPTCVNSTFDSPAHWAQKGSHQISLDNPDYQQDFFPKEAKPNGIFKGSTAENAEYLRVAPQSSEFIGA
Procedure, shortened: as §1

EGFR[T790M/C797S/L858R] = target: T6, EGFR[T790M/C797S/L858R] (Homo sapiens, UniProt P00533, C797S/L858R/T790M); experiment: Inhibition of EGFR[T790M/C797S/L858R] biochemical enzymatic activity (HTRF); settings: 1 mM ATP; for pIC50: EGFR[T790M/C797S/L858R], 1 h at room temperature, read-out: IC50 @T790M- C797S - L858R; for IC50: EGFR T790M-C797S-L858R, 1 h, room temperature, read-out: IC50 (nM) @T790M- C797S - L858R
T6 construct: purchased Carna Bio
Procedure, shortened: as §1

[1] = target: T7, EGFR[T790M/C797S/d746-750] (Homo sapiens, UniProt P00533, C797S/DEL746-750/T790M); experiment: Inhibition of EGFR[T790M/C797S/d746-750] biochemical enzymatic activity (HTRF); settings: for pIC50: EGFR[T790M/C797S/d746-750], 1 mM ATP, 1 h at room temperature, read-out: IC50 @T790M - C797S - Del19; for IC50: EGFR T790M-C797S-Del19, 1 mM ATP, 1 h, room temperature, read-out: IC50 (nM) @T790M - C797S - Del19
T7 construct: purchased Carna Bio
Procedure, shortened: as §1

EGFR (d746-750 C797S) = target: T8, EGFR (d746-750 C797S) (Homo sapiens, UniProt P00533, C797S/DEL746-750); experiment: Inhibition of EGFR (d746-750 C797S) biochemical enzymatic activity (HTRF); settings: 1 mM ATP; for pIC50: EGFR (d746-750 C797S), 1 h at room temperature, read-out: IC50 @Del19-C797S; for IC50: EGFR Del19-C797S, 1 h, room temperature, read-out: IC50 (nM) @Del19-C797S
T8 construct: purchased signalchem
T8 sequence (P00533 with tags, fused parts or gaps DEL746-750/C797S limits assumed): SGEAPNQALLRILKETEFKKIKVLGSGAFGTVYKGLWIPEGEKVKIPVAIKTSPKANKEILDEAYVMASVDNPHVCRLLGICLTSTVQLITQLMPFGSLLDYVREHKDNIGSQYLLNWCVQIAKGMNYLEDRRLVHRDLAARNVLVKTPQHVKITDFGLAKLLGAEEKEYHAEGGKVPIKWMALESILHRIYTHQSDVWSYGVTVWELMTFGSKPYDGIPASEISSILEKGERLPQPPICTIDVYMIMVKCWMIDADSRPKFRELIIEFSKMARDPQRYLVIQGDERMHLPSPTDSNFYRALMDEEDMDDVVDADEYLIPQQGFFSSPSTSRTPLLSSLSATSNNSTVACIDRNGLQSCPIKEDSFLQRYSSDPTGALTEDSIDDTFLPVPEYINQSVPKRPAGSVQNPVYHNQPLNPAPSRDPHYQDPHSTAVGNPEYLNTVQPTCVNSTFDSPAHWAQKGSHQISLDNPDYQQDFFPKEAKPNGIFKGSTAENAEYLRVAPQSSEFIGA
Procedure, shortened: as §1

EGFR (C797S L858R) = target: T9, EGFR (C797S L858R) (Homo sapiens, UniProt P00533, C797S/L858R); experiment: Inhibition of EGFR (C797S L858R) biochemical enzymatic activity (HTRF); settings: 1 mM ATP; for pIC50: EGFR (C797S L858R), 1 h at room temperature, read-out: IC50 @L858-C797S; for IC50: EGFR L858-C797S, 1 h, room temperature, read-out: IC50 (nM) @L858-C797S
T9 construct: purchased signalchem
T9 sequence (P00533 25-1210 C797S/L858R): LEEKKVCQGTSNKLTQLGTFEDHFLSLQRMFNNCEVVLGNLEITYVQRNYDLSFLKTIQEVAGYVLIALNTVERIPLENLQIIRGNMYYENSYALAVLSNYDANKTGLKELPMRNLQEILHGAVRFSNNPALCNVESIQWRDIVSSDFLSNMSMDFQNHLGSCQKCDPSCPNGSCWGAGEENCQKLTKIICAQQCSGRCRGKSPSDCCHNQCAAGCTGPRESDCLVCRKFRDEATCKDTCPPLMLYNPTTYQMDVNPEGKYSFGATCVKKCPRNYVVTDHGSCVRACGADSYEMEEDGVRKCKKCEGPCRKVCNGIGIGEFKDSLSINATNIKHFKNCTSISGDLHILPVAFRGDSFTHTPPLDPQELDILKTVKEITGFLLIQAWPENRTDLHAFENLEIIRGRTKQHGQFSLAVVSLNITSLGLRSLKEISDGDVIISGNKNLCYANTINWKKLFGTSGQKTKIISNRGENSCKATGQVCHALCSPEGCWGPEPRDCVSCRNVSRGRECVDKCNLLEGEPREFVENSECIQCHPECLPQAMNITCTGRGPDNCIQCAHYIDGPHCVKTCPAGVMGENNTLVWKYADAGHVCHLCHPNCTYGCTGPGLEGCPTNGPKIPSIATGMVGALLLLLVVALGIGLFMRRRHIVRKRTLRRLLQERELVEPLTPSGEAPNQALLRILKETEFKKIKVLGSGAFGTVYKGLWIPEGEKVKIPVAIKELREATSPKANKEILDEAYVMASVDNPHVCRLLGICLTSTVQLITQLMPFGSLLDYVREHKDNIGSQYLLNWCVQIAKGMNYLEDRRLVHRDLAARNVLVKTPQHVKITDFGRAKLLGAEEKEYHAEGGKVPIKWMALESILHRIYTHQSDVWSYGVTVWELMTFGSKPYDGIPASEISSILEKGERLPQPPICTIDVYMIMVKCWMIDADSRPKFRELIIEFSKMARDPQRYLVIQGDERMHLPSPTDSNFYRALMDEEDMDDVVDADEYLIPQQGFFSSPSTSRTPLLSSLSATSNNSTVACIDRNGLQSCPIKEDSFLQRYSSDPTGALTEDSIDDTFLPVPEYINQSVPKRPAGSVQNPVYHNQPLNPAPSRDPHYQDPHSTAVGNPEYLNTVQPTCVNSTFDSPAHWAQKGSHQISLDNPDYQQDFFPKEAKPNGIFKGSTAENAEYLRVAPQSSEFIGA
Procedure, shortened: as §1

[2] = tested on: Ba/F3 cells expressing EGFR mutations; experiment: Cell proliferation assay, Ba/F3 cells expressing EGFR mutations (CellTiter-Glo, 72 hours); format: cell-based
Procedure, shortened: (§2)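 Ba/F3 cells (5000/well) and PC-9 cells (500/well, RPMI1640 with 10% FBS) were plated overnight and then dosed with a compound concentration series. Viable cells were read at day 0 (G0) and after treatment (G3). GI50 came from curve fits of G0-corrected proliferation relative to DMSO.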

PC-9 = experiment: Cell proliferation assay, PC-9 cells (CellTiter-Glo, 72 hours); format: cell-based; settings: PC9 cells, read-out: GI50 PC9
Procedure, shortened: as §2

A-431 = experiment: Cell proliferation assay, A-431 cells (GI50, Table 6); format: cell-based
[3] = EGFR Exon19Del, 1 mM ATP, 1 h at room temperature
[4] = BaF3 cells, EGFR DEL19 - C797S, read-out: GI50 DEL19 - C797S/BaF3
[5] = BaF3 cells, EGFR DEL19 - T790-C797S, read-out: GI50 DEL19 - T790-C797S/BaF3
[6] = BaF3 cells, EGFR L858R - C797S, read-out: GI50 L858R - C797S/BaF3
[7] = BaF3 cells, EGFR L858R - T790-C797S, read-out: GI50 L858R - T790-C797S/BaF3
[8] = BaF3 cells, EGFR L858R - T790M, read-out: GI50 L858R - T790M/BaF3
[9] = BaF3 cells, EGFR L858R, read-out: GI50 L858R/BaF3
[10] = EGFR DEL19 - T790M, read-out: GI50 DEL19 - T790M
[11] = EGFR Del19, 1 mM ATP, 1 h, room temperature
[12] = Mus musculus, BaF3, 72 h, BaF3 cells, EGFR DEL19 - C797S, read-out: GI50 DEL19 - C797S/BaF3
[13] = Mus musculus, BaF3, 72 h, BaF3 cells, EGFR DEL19 - T790-C797S, read-out: GI50 DEL19 - T790-C797S/BaF3
[14] = Mus musculus, BaF3, 72 h, BaF3 cells, EGFR L858R - C797S, read-out: GI50 L858R - C797S/BaF3
[15] = Mus musculus, BaF3, 72 h, BaF3 cells, EGFR L858R - T790-C797S, read-out: GI50 L858R - T790-C797S/BaF3
[16] = Mus musculus, BaF3, 72 h, BaF3 cells, EGFR L858R - T790M, read-out: GI50 L858R - T790M/BaF3
[17] = Mus musculus, BaF3, 72 h, BaF3 cells, EGFR L858R, read-out: GI50 L858R/BaF3
[18] = Mus musculus, BaF3, 72 h, EGFR DEL19 - T790M, read-out: GI50 DEL19 - T790M
[19] = Homo sapiens, A-431, A-431 cells

| Structure (SMILES) | pIC50 (EGFR wild type) | pIC50 (EGFR L858R) | pIC50 (EGFR L858R/T790M) | pIC50 (EGFR Exon19Del; [3]) | pIC50 (EGFR Exon19Del/T790M) | pIC50 (EGFR[T790M/C797S/L858R]) | pIC50 [1] | pIC50 (EGFR (d746-750 C797S)) | pIC50 (EGFR (C797S L858R)) | IC50 (EGFR wild type) | IC50 (EGFR L858R) | GI50 [2, 12] | GI50 [2, 13] | GI50 [2, 14] | GI50 [2, 15] | GI50 [2, 16] | GI50 [2, 17] | GI50 [2, 18] | GI50 (PC-9; Homo sapiens, PC-9, 72 h) | GI50 (A-431; [19]) | further results |
| --- | --- | --- | --- | --- | --- | --- | --- | --- | --- | --- | --- | --- | --- | --- | --- | --- | --- | --- | --- | --- | --- |
| Cc1cc2cc(n1)-c1cnn(C)c1OCCN1CC3CCC(C3)(C1)n1c(nc3ccc(N4CCC5(CCN(C)C5)CC4)cc31)NC2=O (single isomer, unassigned) [Example B52A] | < 5.30 | < 5.30 | < 5.30 | < 5.30 | 7.00 | < 5.30 | 7.43 | 5.69 | < 5.30 |  |  |  |  |  |  |  |  |  |  |  | GI50 [2, 4]: 102 nM; GI50 [2, 5]: 169 nM; GI50 [2, 6]: 180 nM; GI50 [2, 7]: 41 nM; GI50 [2, 8]: 191 nM; GI50 [2, 9]: 176 nM; GI50 [2, 10]: 363 nM; GI50 (PC-9): 311 nM; GI50 (A-431; A-431 cells): 7020 nM |
| Cn1ncc2c1OCCN1CC3CCC(CC3)(C1)n1c(nc3ccc(N4CCN(C5CC5)CC4)cc31)NC(=O)c1cc-2c(=O)n(C)c1 [Example A128] |  |  |  |  |  |  |  |  |  | > 5000 nM | 202 nM | 13 nM | 90 nM | 65 nM | 47 nM | 119 nM | 11 nM | 66 nM | 61 nM | 2650 nM | IC50 (EGFR L858R/T790M): 307 nM; pIC50 (EGFR Exon19Del; [11]): 7.96; IC50 (EGFR Exon19Del/T790M): 8 nM; IC50 (EGFR[T790M/C797S/L858R]): 33 nM; IC50 [1]: 4.7 nM; IC50 (EGFR (d746-750 C797S)): 4.9 nM; IC50 (EGFR (C797S L858R)): 49 nM |
| CN(C)CCN(C)c1ccc2nc3n(c2c1)C12CCC(CC1)CN(CCOc1c(cnn1C)-c1cc(cn(C)c1=O)C(=O)N3)C2 [Example A124] |  |  |  |  |  |  |  |  |  | 2790 nM | 139 nM | 7.2 nM | 38 nM | 32 nM | 11 nM | 47 nM | 5.2 nM | 26 nM | 27 nM | 3800 nM | IC50 (EGFR L858R/T790M): 334 nM; pIC50 (EGFR Exon19Del; [11]): 7.82; IC50 (EGFR Exon19Del/T790M): 9.8 nM; IC50 (EGFR[T790M/C797S/L858R]): 72 nM; IC50 [1]: 7.7 nM; IC50 (EGFR (d746-750 C797S)): 11 nM; IC50 (EGFR (C797S L858R)): 76 nM |
| Cc1cc2cc(n1)-c1cnn(C)c1OCCN1CC3CCC(C3)(C1)n1c(nc3ccccc31)NC2=O (stereo not drawn) [Example B8B, 15,21-dimethyl-23-oxa-2,9,11,16,20,21,26-heptaazaheptacyclo[24.4.1.1^{1,28}.1^{13,17}.0^{2,10}.0^{3,8}.0^{18,22}]tritriaconta-3,5,7,9,13,15,17(33),18(22),19-nonaen-12-one] | < 5.30 | 6.33 | 8.89 | 7.85 | 9.02 | 9.00 | 9.01 | 8.38 | 6.70 |  |  | 4.8 nM | 2.1 nM | 53 nM | 2.4 nM | 8.6 nM | 72 nM | 2.6 nM | 63 nM | 2710 nM |  |
| Cc1cc2cc(n1)-c1cnn(C)c1OCCN(CC(F)F)CCn1c(nc3ccccc31)NC2=O [Example B5] |  |  |  |  |  |  |  |  |  | > 5000 nM | 440 nM | 62 nM | 31 nM | 66 nM | 9.1 nM | 7 nM | 144 nM | 41 nM | 115 nM | 2820 nM | IC50 (EGFR L858R/T790M): 13 nM; pIC50 (EGFR Exon19Del; [11]): 6.97; IC50 (EGFR Exon19Del/T790M): 5.1 nM; IC50 (EGFR[T790M/C797S/L858R]): 7.1 nM; IC50 [1]: 4.1 nM; IC50 (EGFR (d746-750 C797S)): 48 nM; IC50 (EGFR (C797S L858R)): 195 nM |
| Cc1cc2cc(n1)-c1cnn(C)c1OCCN1CC3CCC(C3)(C1)n1c(nc3ccc(N(C)CCN(C)C)cc31)NC2=O (single isomer, unassigned) [Example B47B] | 6.09 | 7.23 | 8.46 | 8.24 | 8.55 | 8.82 | 8.72 | 8.55 | 7.85 |  |  |  |  |  |  |  |  |  |  | 378 nM | GI50 [2, 4]: 2 nM; GI50 [2, 5]: 2 nM; GI50 [2, 6]: 9 nM; GI50 [2, 7]: 2 nM; GI50 [2, 8]: 2 nM; GI50 [2, 9]: 11 nM; GI50 [2, 10]: 2 nM; GI50 (PC-9): 12 nM |
